Calls of active or inactive are those of the source.
Columns and labels:
[1] = tested on: BJ; experiment: BJ-TERT fibroblast viability loss – cell-based, RAS-independent, luminescence, dose response (AID 1933); assay type: functional; conditions: Homo sapiens
[2] = tested on: BJ; experiment: cells; assay type: functional, cell-based; conditions: Homo sapiens
[3] = tested on: BJ; experiment: BJ-TERT-LT-ST fibroblast viability loss – cell-based, RAS-independent, luminescence, dose response (AID 1935); assay type: functional; conditions: Homo sapiens;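 also: BJ fibroblasts immortalized with TERT plus LT and ST oncogenes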
[4] = DRD fibroblast viability loss – cell-based, non-viral oncogenic, luminescence, dose response (AID 1934); assay type: functional; conditions: Homo sapiens
[5] = tested on: BJ; experiment: growth inhibition of engineered Ras-driven BJ cells – cell-based, alamar blue fluorescence, cherrypicked samples, dose response (AID 2631); assay type: functional; conditions: Homo sapiens;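 also: confirmatory dose-response assay in RAS-dependent BJ fibroblasts engineered with TERT, LT and ST, with cytotoxicity read by fluorescence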
[6] = tested on: Streptococcus sp. 'group A'; experiment: Streptococcus pyogenes SK(-)GAS viability under kanamycin – luminescence, BacTiterGlo, confirmation, counter-screen for streptokinase expression inhibitor project, dose response (AID 1900); assay type: functional, organism-based
[7] = target: T1, Streptokinase A (Streptococcus pyogenes serotype M1, UniProt P10520); experiment: viability-normalized secreted streptokinase activity reduction – plasminogen activation absorbance, OD405, dose response (AID 1914); assay type: functional, Streptococcus pyogenes M1 GAS;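 also: secreted streptokinase activity via plasminogen activation per viability signal from cell pellet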
T1 sequence (P10520 whole entry): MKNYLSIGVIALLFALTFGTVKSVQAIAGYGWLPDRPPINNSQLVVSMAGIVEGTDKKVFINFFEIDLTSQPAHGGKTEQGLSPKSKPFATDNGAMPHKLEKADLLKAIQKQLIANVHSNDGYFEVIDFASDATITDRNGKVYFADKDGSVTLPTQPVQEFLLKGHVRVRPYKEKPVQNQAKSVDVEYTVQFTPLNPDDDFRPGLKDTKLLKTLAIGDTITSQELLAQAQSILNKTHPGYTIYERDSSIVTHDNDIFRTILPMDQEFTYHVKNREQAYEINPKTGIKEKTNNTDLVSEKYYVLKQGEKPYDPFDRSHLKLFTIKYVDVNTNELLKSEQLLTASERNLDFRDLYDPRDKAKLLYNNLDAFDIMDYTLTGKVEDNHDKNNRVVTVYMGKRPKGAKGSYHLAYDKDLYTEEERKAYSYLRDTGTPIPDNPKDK

[8] = tested on: Streptococcus; experiment: GAS UMAA2166 growth inhibition – luminescence, BacTiterGlo, counter-screen for streptokinase expression inhibitor project, dose response (AID 1915); assay type: functional, organism-based;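 also: potency for reduction of bacterial viability or growth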
[9] = target: T2, Apoptotic protease-activating factor 1 (Homo sapiens, UniProt O14727); assay type: functional
T2 sequence (O14727 whole entry): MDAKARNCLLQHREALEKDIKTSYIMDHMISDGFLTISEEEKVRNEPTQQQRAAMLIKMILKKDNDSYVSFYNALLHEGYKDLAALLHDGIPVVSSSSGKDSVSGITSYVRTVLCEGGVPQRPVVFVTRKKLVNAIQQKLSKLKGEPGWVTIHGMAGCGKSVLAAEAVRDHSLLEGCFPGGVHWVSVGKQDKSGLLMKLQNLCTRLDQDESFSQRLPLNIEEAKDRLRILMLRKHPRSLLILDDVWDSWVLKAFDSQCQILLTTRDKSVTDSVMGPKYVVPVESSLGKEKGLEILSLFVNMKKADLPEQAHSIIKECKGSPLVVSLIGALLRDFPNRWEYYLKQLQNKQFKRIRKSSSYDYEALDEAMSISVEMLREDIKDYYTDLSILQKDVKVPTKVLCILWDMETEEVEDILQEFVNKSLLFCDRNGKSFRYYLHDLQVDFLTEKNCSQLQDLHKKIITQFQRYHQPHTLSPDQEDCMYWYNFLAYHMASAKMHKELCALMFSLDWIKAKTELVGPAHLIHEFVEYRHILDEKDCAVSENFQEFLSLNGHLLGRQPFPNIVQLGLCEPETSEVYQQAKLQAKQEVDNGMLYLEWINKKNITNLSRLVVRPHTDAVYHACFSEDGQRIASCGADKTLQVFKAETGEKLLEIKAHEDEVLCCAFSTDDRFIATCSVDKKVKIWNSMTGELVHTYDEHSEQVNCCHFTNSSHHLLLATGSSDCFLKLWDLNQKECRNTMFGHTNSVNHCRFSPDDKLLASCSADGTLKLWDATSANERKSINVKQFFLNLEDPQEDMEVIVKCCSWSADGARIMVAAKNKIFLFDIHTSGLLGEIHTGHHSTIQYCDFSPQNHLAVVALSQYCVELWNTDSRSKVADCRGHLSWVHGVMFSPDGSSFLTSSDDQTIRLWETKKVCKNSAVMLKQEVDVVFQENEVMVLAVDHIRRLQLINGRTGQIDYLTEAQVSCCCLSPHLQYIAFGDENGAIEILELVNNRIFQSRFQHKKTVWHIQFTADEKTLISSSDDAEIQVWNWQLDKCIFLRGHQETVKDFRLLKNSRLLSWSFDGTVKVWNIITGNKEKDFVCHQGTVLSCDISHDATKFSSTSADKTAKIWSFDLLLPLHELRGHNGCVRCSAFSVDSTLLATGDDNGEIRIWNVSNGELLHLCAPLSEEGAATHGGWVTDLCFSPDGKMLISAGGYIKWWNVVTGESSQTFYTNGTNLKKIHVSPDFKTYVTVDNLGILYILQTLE

[10] = target: Large T antigen (Simian virus 40, UniProt P03070); assay type: functional, Betapolyomavirus macacae;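 also: Confirmatory-stage PubChem screen for compounds that inhibit SV40 T antigen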
[11] = target: T3, Caspase-3 (Homo sapiens, UniProt P42574); assay type: functional;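 also: Dose-response selectivity test against caspase-3 for candidate inhibitors of sentrin-specific proteases (SENPs)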
T3 sequence (P42574 whole entry): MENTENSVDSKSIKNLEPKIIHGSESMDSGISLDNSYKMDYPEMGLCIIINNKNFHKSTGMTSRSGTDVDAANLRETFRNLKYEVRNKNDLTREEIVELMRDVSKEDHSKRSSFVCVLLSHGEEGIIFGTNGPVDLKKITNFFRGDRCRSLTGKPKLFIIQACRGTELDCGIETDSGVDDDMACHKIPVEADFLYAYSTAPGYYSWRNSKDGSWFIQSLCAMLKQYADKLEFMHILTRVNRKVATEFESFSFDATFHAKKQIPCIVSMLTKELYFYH

[12] = target: T4, Sentrin-specific protease 7 (Homo sapiens, UniProt Q9BQF6); assay type: functional;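 also: Luminescence-based dose-response confirmation of ultra-high-throughput screening hits, measuring inhibition of SENP7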
T4 sequence (Q9BQF6 whole entry): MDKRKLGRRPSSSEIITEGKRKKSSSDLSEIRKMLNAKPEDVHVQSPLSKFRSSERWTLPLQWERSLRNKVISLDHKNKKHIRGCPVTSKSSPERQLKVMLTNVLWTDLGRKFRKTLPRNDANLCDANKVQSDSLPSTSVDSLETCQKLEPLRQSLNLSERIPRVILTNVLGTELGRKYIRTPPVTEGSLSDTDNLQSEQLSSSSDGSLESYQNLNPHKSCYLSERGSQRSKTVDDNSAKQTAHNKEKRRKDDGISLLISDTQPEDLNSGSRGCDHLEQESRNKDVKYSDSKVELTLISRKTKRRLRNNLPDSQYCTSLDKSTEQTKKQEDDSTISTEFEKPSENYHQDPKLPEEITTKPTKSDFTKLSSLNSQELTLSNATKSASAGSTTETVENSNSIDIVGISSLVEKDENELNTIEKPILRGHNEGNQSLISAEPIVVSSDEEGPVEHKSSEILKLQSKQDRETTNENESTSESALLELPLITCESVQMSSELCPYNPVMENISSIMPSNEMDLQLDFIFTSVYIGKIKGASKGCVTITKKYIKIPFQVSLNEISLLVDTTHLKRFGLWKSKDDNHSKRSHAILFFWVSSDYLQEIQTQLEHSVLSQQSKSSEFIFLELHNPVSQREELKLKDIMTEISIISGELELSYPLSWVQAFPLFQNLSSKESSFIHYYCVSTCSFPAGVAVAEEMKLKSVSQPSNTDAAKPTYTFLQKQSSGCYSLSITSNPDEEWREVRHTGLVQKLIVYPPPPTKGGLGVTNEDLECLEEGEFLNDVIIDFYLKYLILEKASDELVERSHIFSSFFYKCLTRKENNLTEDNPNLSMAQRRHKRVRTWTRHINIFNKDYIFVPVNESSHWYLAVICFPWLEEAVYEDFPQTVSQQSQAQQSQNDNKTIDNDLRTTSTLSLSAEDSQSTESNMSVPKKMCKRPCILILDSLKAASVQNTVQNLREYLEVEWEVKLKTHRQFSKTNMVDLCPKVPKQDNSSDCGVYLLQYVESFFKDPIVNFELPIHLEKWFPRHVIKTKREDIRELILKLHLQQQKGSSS

[13] = target: T5, Sentrin-specific protease 6 (Homo sapiens, UniProt Q9GZR1); assay type: functional;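 also: Luminescence-based dose-response confirmatory assay of SENP6 inhibition, following up an ultra-high-throughput screen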
T5 sequence (Q9GZR1 whole entry): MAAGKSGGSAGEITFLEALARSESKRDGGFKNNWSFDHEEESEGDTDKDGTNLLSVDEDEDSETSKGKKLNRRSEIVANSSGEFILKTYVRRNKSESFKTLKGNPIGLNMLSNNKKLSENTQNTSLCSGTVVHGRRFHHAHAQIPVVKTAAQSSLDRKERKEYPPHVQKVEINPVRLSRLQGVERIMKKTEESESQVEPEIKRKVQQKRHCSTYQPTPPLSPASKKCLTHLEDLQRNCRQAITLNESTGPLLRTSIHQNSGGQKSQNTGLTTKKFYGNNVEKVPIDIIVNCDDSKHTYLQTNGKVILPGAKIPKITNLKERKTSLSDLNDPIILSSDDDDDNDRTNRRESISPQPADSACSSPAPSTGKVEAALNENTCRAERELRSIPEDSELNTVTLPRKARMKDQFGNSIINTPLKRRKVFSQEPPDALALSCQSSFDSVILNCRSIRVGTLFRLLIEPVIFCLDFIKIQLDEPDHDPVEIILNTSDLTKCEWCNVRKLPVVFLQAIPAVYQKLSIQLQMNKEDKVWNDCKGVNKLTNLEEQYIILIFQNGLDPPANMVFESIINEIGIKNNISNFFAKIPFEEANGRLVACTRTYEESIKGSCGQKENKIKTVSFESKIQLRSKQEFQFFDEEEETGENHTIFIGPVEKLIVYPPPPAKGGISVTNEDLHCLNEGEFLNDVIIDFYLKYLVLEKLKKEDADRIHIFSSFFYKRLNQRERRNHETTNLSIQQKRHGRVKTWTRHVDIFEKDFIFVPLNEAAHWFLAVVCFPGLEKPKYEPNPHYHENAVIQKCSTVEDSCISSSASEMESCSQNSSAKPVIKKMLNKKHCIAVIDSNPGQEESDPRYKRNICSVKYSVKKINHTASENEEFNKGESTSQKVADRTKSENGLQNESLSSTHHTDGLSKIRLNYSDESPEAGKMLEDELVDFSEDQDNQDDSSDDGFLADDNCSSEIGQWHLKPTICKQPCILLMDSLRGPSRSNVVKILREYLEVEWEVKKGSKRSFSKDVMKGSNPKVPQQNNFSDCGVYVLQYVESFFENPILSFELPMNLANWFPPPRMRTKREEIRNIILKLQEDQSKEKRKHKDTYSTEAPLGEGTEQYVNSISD

[14] = target: T6, Sentrin-specific protease 8 (Homo sapiens, UniProt Q96LD8); assay type: functional;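 also: luminescence read-out of SENP8 inhibition, dose-response confirmation following an ultra-high-throughput screen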
T6 sequence (Q96LD8 whole entry): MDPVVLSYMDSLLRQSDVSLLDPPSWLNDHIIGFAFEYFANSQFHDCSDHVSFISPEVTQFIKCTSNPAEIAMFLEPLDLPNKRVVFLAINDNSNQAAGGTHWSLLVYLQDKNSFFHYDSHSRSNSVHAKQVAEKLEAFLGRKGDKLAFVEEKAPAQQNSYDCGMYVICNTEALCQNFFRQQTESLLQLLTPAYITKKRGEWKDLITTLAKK

[15] = Luminescence Cell-Based Dose Confirmation HTS to Identify Activators of 5'UTR Stem-Loop Driven Alpha-Synuclein mRNA Translation in H4 Neuroglioblastoma Cells. [Related pubchem assays: 1829 (Project Summary), 1814 (Primary HTS)]; assay type: functional
[16] = Luminescence Cell-Based Dose Response HTS to Identify Activators of Luciferase Translation or Activity in H4 […] Cells. [Related pubchem assays: 1829 (Project Summary), 1814 (Primary HTS)]; assay type: functional
[17] = tested on: H4; experiment: Luminescence Cell-Based Dose Response HTS to Identify Activators of 5'UTR Stem-Loop Driven Prion Protein mRNA Translation in H4 Neuroglioblastoma Cells. [Related pubchem assays: 1829 (Project Summary), 1814 (Primary HTS)]; assay type: functional; conditions: Homo sapiens
[18] = target: Cytochrome P450 2C9 (Homo sapiens, UniProt P11712)
[19] = target: Nonstructural protein 1 (Influenza A virus, UniProt Q194T2); assay type: functional, Influenza A virus (A/California/07/2009(H1N1))
Nonstructural protein 1, sequence (Q194T2 whole entry): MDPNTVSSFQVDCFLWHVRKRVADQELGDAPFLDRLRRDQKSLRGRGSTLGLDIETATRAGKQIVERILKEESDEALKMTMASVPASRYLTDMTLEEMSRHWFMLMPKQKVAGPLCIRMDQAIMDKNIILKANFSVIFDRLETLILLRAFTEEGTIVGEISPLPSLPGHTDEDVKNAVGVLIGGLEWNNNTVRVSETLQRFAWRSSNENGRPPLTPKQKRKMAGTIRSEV

Cytochrome P450 2C9, sequence (P11712 whole entry): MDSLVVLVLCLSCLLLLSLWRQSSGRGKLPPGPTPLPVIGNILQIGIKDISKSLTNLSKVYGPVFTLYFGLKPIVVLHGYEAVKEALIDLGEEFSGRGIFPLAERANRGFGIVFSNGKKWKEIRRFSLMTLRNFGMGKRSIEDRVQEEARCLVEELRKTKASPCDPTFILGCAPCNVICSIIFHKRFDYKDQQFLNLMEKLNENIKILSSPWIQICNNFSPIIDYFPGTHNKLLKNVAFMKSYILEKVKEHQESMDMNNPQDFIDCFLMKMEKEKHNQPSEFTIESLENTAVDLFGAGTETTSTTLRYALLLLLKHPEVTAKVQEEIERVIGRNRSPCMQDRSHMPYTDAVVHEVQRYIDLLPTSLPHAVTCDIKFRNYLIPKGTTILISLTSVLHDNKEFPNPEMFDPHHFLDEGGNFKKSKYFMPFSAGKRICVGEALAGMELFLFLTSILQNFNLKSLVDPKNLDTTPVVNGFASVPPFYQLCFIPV
Large T antigen, sequence (P03070 whole entry): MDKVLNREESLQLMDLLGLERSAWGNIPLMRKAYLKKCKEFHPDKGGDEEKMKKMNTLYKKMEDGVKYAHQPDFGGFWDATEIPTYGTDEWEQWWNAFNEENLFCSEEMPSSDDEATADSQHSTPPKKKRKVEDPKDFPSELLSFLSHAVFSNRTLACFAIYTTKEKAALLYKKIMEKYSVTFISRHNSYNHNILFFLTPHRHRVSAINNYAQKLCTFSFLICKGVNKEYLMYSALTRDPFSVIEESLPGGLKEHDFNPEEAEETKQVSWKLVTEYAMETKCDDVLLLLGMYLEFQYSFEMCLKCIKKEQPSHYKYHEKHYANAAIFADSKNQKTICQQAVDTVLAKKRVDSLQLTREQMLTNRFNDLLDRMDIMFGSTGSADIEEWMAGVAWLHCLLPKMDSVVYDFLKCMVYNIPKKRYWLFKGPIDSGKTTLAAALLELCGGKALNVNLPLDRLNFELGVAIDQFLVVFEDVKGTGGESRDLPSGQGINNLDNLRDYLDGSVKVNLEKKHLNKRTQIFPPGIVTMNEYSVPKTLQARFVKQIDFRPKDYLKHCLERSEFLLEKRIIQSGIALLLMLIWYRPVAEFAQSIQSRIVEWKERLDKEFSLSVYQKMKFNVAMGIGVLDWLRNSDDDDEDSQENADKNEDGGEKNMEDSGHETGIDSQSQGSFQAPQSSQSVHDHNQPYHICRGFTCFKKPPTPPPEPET

COCCCNC(=O)Cc1c(C)c2c(cc(C)c3c(C(C)(C)C)coc32)oc1=O
inconclusive: EC50 [1] 8.02 µM | EC50 [2] 19.3 µM | EC50 [4] 10.6 µM
active: EC50 [3] 4.18 µM | EC50 [5] 0.473 µM

C[C@@]12CCC=C[C@H]1[C@H](c1ccc3ccccc3c1Br)N(Cc1ccccc1)C2=O
active: EC50 [6] 4.22 µM | EC50 [7] 5.76 µM | EC50 [8] 5.78 µM | IC50 [9] 59.3 µM

Cc1cc(C)c2c(CCl)cc(=O)oc2c1
inconclusive: EC50 [3] 0.584 µM
active: EC50 [1] 0.784 µM | EC50 [2] 0.676 µM | IC50 [10] 9.73 µM | EC50 [4] 0.762 µM | EC50 [5] 0.296 µM

C/C(=N/OC(=O)c1ccccc1Br)c1ccc(C)cc1
active: IC50 [11] 31.3 µM | IC50 [12] 7.72 µM | IC50 [13] 28.1 µM | IC50 [14] 46.9 µM

Clc1ccc(-c2cc3ccccc3[nH]2)cc1
active: EC50 [15] 3.77 µM | EC50 [16] 106 µM | EC50 [17] 9.01 µM | IC50 [11] 16 µM | IC50 [12] 8.48 µM | IC50 [13] 18 µM | IC50 [14] 19.9 µM
inconclusive: AC50 [18] 11.2 µM

CCOC(=O)C1CCCN(C2=C(NS(=O)(=O)c3ccc(Br)cc3)C(=O)c3ccccc3C2=O)C1 (configuration not stated)
active: IC50 [19] 15.9 µM | IC50 [9] 19.5 µM

Cc1cc(-n2c(C)cc(C(=O)COc3ccc(F)c(F)c3)c2C)no1
active: IC50 [11] 21 µM | IC50 [12] 8.26 µM | IC50 [13] 22.7 µM | IC50 [14] 20.4 µM

Fc1ccc(NC(=S)N2N=CCC2c2ccccc2)cc1 (configuration not stated)
active: IC50 [11] 15.9 µM | IC50 [12] 11.8 µM | IC50 [13] 39.3 µM | IC50 [14] 38.3 µM

Source: ChEMBL document CHEMBL1201862, “PubChem BioAssay data set” (2004)
